26 molecules from patent publication US11208400B2, “Substituted 6-(1H-pyrazol-1-yl)pyrimidin-4-amine derivatives and uses thereof” (Bayer Aktiengesellschaft, priority 2016, dated 2021) can be followed below.

This experiment addresses T1, human Npt2a (Homo sapiens, UniProt Q06495).
T1 construct: expressed in transfected cells
T1 sequence (Q06495 1-639): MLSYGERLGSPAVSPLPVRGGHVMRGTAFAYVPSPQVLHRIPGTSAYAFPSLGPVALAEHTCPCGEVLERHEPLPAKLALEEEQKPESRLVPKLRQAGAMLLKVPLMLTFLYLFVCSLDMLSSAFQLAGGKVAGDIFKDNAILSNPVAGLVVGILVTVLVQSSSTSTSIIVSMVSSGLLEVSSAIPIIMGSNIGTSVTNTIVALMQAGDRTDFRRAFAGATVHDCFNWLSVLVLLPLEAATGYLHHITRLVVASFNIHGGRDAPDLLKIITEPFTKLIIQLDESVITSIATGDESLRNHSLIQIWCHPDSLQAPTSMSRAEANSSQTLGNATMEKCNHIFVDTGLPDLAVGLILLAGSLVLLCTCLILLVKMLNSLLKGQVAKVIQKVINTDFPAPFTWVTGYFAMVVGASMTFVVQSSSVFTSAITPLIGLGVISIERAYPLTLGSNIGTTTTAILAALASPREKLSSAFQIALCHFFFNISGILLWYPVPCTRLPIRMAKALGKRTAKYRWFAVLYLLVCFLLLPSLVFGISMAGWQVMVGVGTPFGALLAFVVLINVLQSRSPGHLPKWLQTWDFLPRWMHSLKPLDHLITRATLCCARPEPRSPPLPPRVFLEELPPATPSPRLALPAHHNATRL
The experiment is described as follows: Npt2a activity cell based assay, membrane potential dye, CHO T-REx hNpt2a cells. The settings on record: doxycycline-induced, depolarization by sodium phosphate influx, average or median values if tested more than once. Summed up: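 Cells were doxycycline-induced CHO T-REx hNpt2a, dye-loaded and pretreated 5 min at RT with 1 nM–50 μM compound in Na-free pH 7.4 buffer. IC50 was fit to the post/pre-trigger fluorescence ratio.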
For orientation: IC50 means the point on the concentration scale where inhibition reaches its midpoint. A low value points to greater potency. For `CCc1c(-c2ccc(F)cc2)nn(CC2CC2)c1Nc1cc(-n2nc(C)c(Cl)c2C(F)F)ncn1` [Example 148, 6-[4-chloro-5-(difluoromethyl)-3-methyl-1H-pyrazol-1-yl]-N-[1-(cyclopropylmethyl)-4-ethyl-3-(4-fluorophenyl)-1H-pyrazol-5-yl]pyrimidin-4-amine], the IC50 stood at 80 nM.

Consider `CCOC(=O)c1c(C)nn(-c2cc(Nc3c(C)c(-c4ccc(C#N)cc4)nn3CC3CC3)ncn2)c1C` [Example 149, ethyl 1-(6-{[3-(4-cyanophenyl)-1-(cyclopropylmethyl)-4-methyl-1H-pyrazol-5-yl]amino}pyrimidin-4-yl)-3,5-dimethyl-1H-pyrazole-4-carboxylate], for which 7 nM corresponded to half-maximal inhibition (IC50).

Molecule `CCOC(=O)c1c(C)nn(-c2cc(Nc3nn(CC4CC4)c(-c4ccc(F)cc4)c3C)ncn2)c1C` [Example 151, ethyl 1-(6-{[1-(cyclopropylmethyl)-5-(4-fluorophenyl)-4-methyl-1H-pyrazol-3-yl]amino}pyrimidin-4-yl)-3,5-dimethyl-1H-pyrazole-4-carboxylate] gave an IC50 of 390 nM.

The molecule `CCOC(=O)c1c(C)nn(-c2cc(Nc3c(C)c(-c4ccc(F)cc4)nn3CC3CC3)ncn2)c1C` [Example 152, ethyl 1-(6-{[1-(cyclopropylmethyl)-3-(4-fluorophenyl)-4-methyl-1H-pyrazol-5-yl]amino}pyrimidin-4-yl)-3,5-dimethyl-1H-pyrazole-4-carboxylate] returned an IC50 of 6 nM.

Molecule `CCOC(=O)c1c(C)nn(-c2cc(Nc3nn(CC4CC4)c(-c4ccc(F)cc4)c3Cl)ncn2)c1C` [Example 153, ethyl 1-(6-{[4-chloro-1-(cyclopropylmethyl)-5-(4-fluorophenyl)-1H-pyrazol-3-yl]amino}pyrimidin-4-yl)-3,5-dimethyl-1H-pyrazole-4-carboxylate] came in with an IC50 of 410 nM. Compared with the last molecule, the IC50 is about 68-fold higher.

Turning to `Cc1nn(-c2cc(Nc3c(C)c(-c4ccc(C#N)cc4)nn3CC3CC3)ncn2)c(C(F)F)c1Cl` [Example 154, 4-[5-({6-[4-chloro-5-(difluoromethyl)-3-methyl-1H-pyrazol-1-yl]pyrimidin-4-yl}amino)-1-(cyclopropylmethyl)-4-methyl-1H-pyrazol-3-yl]benzonitrile], the midpoint of inhibition, the IC50, lay at 3 nM.

As to `CCOC(=O)c1c(C)nn(-c2cc(Nc3c(CC)c(-c4ccc(F)cc4)nn3C)ncn2)c1C` [Example 155, ethyl 1-(6-{[4-ethyl-3-(4-fluorophenyl)-1-methyl-1H-pyrazol-5-yl]amino}pyrimidin-4-yl)-3,5-dimethyl-1H-pyrazole-4-carboxylate], the midpoint of inhibition, the IC50, lay at 9 nM.

`CCOC(=O)c1c(C)nn(-c2cc(Nc3c(CC)c(-c4ccc(C#N)cc4)nn3CC3CC3)ncn2)c1C` [Example 156, ethyl 1-(6-{[3-(4-cyanophenyl)-1-(cyclopropylmethyl)-4-ethyl-1H-pyrazol-5-yl]amino}pyrimidin-4-yl)-3,5-dimethyl-1H-pyrazole-4-carboxylate] came in with an IC50 of 2 nM.

Molecule `CCc1c(-c2ccc(C#N)cc2)nn(CC2CC2)c1Nc1cc(-n2nc(C)c(Cl)c2C)ncn1` [Example 157, 4-[5-{[6-(4-chloro-3,5-dimethyl-1H-pyrazol-1-yl)pyrimidin-4-yl]amino}-1-(cyclopropylmethyl)-4-ethyl-1H-pyrazol-3-yl]benzonitrile] had an IC50 of 6 nM.

Molecule `CCOC(=O)c1c(C)nn(-c2cc(Nc3c(Cl)c(-c4ccc(F)cc4)nn3CC3CC3)ncn2)c1C` [Example 158, ethyl 1-(6-{[4-chloro-1-(cyclopropylmethyl)-3-(4-fluorophenyl)-1H-pyrazol-5-yl]amino}pyrimidin-4-yl)-3,5-dimethyl-1H-pyrazole-4-carboxylate] had an IC50 of 4 nM. Against the preceding molecule, the IC50 is about 1.5-fold lower.

On to `Cc1nn(-c2cc(Nc3c(C)c(-c4ccc(F)cc4)nn3CC3CC3)ncn2)c(C)c1C(C)(C)O` [Example 159, 2-[1-(6-{[1-(cyclopropylmethyl)-3-(4-fluorophenyl)-4-methyl-1H-pyrazol-5-yl]amino}pyrimidin-4-yl)-3,5-dimethyl-1H-pyrazol-4-yl]propan-2-ol], for which 8 nM corresponded to half-maximal inhibition (IC50).

For the molecule `Cc1nn(-c2cc(Nc3nn(CC4CC4)c(-c4ccc(F)cc4)c3Cl)ncn2)c(C)c1C(C)(C)O` [Example 160, 2-[1-(6-{[4-chloro-1-(cyclopropylmethyl)-5-(4-fluorophenyl)-1H-pyrazol-3-yl]amino}pyrimidin-4-yl)-3,5-dimethyl-1H-pyrazol-4-yl]propan-2-ol], inhibition was half-maximal at 1110 nM (IC50).

Molecule `CCc1c(-c2ccc(F)cc2)nn(CC(F)F)c1Nc1cc(-n2nc(C)cc2C)ncn1` [Example 162, N-[1-(2,2-difluoroethyl)-4-ethyl-3-(4-fluorophenyl)-1H-pyrazol-5-yl]-6-(3,5-dimethyl-1H-pyrazol-1-yl)pyrimidin-4-amine] came in with an IC50 of 97 nM.

Molecule `CCc1c(-c2ccc(F)cc2)nn(CC(F)F)c1Nc1cc(-n2nc(C)c(Cl)c2C)ncn1` [Example 163, 6-(4-chloro-3,5-dimethyl-1H-pyrazol-1-yl)-N-[1-(2,2-difluoroethyl)-4-ethyl-3-(4-fluorophenyl)-1H-pyrazol-5-yl]pyrimidin-4-amine] displayed an IC50 of 71 nM.

`CCc1c(-c2ccc(C#N)cc2)nn(CC2CC2)c1Nc1cc(-n2nc(C)c(Cl)c2C(F)F)ncn1` [Example 164, 4-[5-({6-[4-chloro-5-(difluoromethyl)-3-methyl-1H-pyrazol-1-yl]pyrimidin-4-yl}amino)-1-(cyclopropylmethyl)-4-ethyl-1H-pyrazol-3-yl]benzonitrile] gave an IC50 of 11 nM.

The molecule `Cc1nn(-c2cc(Nc3c(C)c(-c4ccc(C#N)cc4)nn3CC3CC3)ncn2)c(C)c1C(C)(C)O` [Example 165, 4-[1-(cyclopropylmethyl)-5-({6-[4-(2-hydroxypropan-2-yl)-3,5-dimethyl-1H-pyrazol-1-yl]pyrimidin-4-yl}amino)-4-methyl-1H-pyrazol-3-yl]benzonitrile] displayed an IC50 of 3 nM.

Regarding `CCc1c(Nc2cc(-n3nc(C)c(C(=O)OC(C)(C)C)c3C(F)F)ncn2)nn(C)c1-c1ccc(F)cc1` [Example 166, tert-butyl 5-(difluoromethyl)-1-(6-{[4-ethyl-5-(4-fluorophenyl)-1-methyl-1H-pyrazol-3-yl]amino}pyrimidin-4-yl)-3-methyl-1H-pyrazole-4-carboxylate], the IC50 turned out to be 9 nM.

Molecule `CCc1c(Nc2cc(-n3nc4ncccc4c3C)ncn2)nn(C)c1-c1ccc(F)cc1` [Example 167, N-[4-ethyl-5-(4-fluorophenyl)-1-methyl-1H-pyrazol-3-yl]-6-(3-methyl-2H-pyrazolo[3,4-b]pyridin-2-yl)pyrimidin-4-amine] showed an IC50 of 550 nM.

In turn, `CCc1c(Nc2cc(-n3nc(C)c4ccncc43)ncn2)nn(C)c1-c1ccc(F)cc1` [Example 168, N-[4-ethyl-5-(4-fluorophenyl)-1-methyl-1H-pyrazol-3-yl]-6-(3-methyl-1H-pyrazolo[3,4-c]pyridin-1-yl)pyrimidin-4-amine] registered an IC50 of 15 nM.

Molecule `Cc1cc(C)n(-c2cc(Nc3nn(CC4CC4)c(-c4ccc(F)cc4)c3C)ncn2)n1` [Example 169, N-[1-(cyclopropylmethyl)-5-(4-fluorophenyl)-4-methyl-1H-pyrazol-3-yl]-6-(3,5-dimethyl-1H-pyrazol-1-yl)pyrimidin-4-amine] returned an IC50 of 690 nM.

As for `Cc1nn(-c2cc(Nc3nn(CC4CC4)c(-c4ccc(F)cc4)c3C)ncn2)c(C)c1Cl` [Example 170, 6-(4-chloro-3,5-dimethyl-1H-pyrazol-1-yl)-N-[1-(cyclopropylmethyl)-5-(4-fluorophenyl)-4-methyl-1H-pyrazol-3-yl]pyrimidin-4-amine], the IC50 was 440 nM.

With `Cc1cc(C)n(-c2cc(Nc3c(C)c(-c4ccc(F)cc4)nn3CC3CC3)ncn2)n1` [Example 171, N-[1-(cyclopropylmethyl)-3-(4-fluorophenyl)-4-methyl-1H-pyrazol-5-yl]-6-(3,5-dimethyl-1H-pyrazol-1-yl)pyrimidin-4-amine], the midpoint of inhibition, the IC50, lay at 12 nM. Against the preceding molecule, the IC50 is about 37-fold lower.

`CCc1c(Nc2cc(-n3nc(C)c(Cl)c3C(F)F)ncn2)nn(CC(F)F)c1-c1ccc(F)cc1` [Example 172, 6-[4-chloro-5-(difluoromethyl)-3-methyl-1H-pyrazol-1-yl]-N-[1-(2,2-difluoroethyl)-4-ethyl-5-(4-fluorophenyl)-1H-pyrazol-3-yl]pyrimidin-4-amine] yielded an IC50 of 57 nM.

The molecule `CCc1c(Nc2cc(-n3nc(C)cc3C)ncn2)nn(CC(F)F)c1-c1ccc(F)cc1` [Example 173, N-[1-(2,2-difluoroethyl)-4-ethyl-5-(4-fluorophenyl)-1H-pyrazol-3-yl]-6-(3,5-dimethyl-1H-pyrazol-1-yl)pyrimidin-4-amine] displayed an IC50 of 16 nM.

Molecule `CCc1c(Nc2cc(-n3nc(C)c(Cl)c3C)ncn2)nn(CC(F)F)c1-c1ccc(F)cc1` [Example 174, 6-(4-chloro-3,5-dimethyl-1H-pyrazol-1-yl)-N-[1-(2,2-difluoroethyl)-4-ethyl-5-(4-fluorophenyl)-1H-pyrazol-3-yl]pyrimidin-4-amine] showed an IC50 of 33 nM.

`Cc1nn(-c2cc(Nc3c(C)c(-c4ccc(F)cc4)nn3CC3CC3)ncn2)c(C)c1Cl` [Example 175, 6-(4-chloro-3,5-dimethyl-1H-pyrazol-1-yl)-N-[1-(cyclopropylmethyl)-3-(4-fluorophenyl)-4-methyl-1H-pyrazol-5-yl]pyrimidin-4-amine] came in with an IC50 of 14 nM.
